Laboratory results taken from patent US8372991B2, “Trisubstituted thiophenes that modulate intracellular calcium” (Calcimedica, Inc., priority 2008, dated 2013).

Test system: not listed separately
Assay: Fluorescence-based assay of store-operated calcium entry in Orai1/STIM1 stable cells (Table A JR251)
Format: cell-based
Conditions: Homo sapiens, 50% inhibition of Peak-Basal fluorescence signal
Protocol: A. Fluorescence-Based Assay of Store-Operated Calcium Entry in Orai1/STIM1 Stable Cells.
Cells stably expressing recombinant human STIM1 and Orai1 were generated by transfecting a human Orai1 expression plasmid (pcDNA3.1-Orai1-cmyc) into HEK-293 cells stably overexpressing human STIM1 (Roos et al. 2005 JCB 169(3): 435-445). Colonies of cells stably expressing both STIM1 and Orai1 proteins were selected and then subcloned by limiting dilution. Cells were cultured at 37° C./6% CO2 in complete medium with 10% FBS and appropriate selection markers.
(§1) The day prior to performing the assay Orai1/STIM1 stable cells were plated in 50 μL of complete medium at 90-95% confluence in a 384 well plate. Cells were grown at 37° C./6% CO2 overnight. On the day of the assay, 1.5 μM fluo-4-AM (Invitrogen) in complete medium was added to the cells, which were then incubated for 1 hour at RT. Cells were washed once in Ca^2+-free HBSS (Hank's buffered saline solution) and 35 μl of Ca^2+-free HBSS was added to each well. Test compounds were added to wells in a 10 μL Ca^2+-free HBSS solution, prepared at 4.5× the desired final concentration, and incubated for 30 minutes at RT. The initial baseline fluorescence signal was then measured with a FLIPR^384 (Molecular Devices) plate reader. Calcium entry was initiated by adding 5 μl of 10× CaCl2 (10 mM) in HBSS, and changes in cellular fluorescence were measured with the FLIPR^384 plate reader. In each well, the magnitude of the fluorescence signal as a result of calcium entry into the cell was determined by calculating the difference between the peak fluorescence signal measured after calcium addition and the initial baseline fluorescence signal (designated Peak-Basal). IC50 values were typically calculated as the concentration that inhibited 50% of the Peak-Basal signal (Table A).

Row | IC50 [µM] | Structure (SMILES)
1 | ≤ 0.5 | O=C(Nc1scc(-c2cnc(C(F)(F)F)nc2)c1C(=O)O)c1cc2ccccc2o1 [F]
2 | 1 to 10 | O=C(CCc1cccc(F)c1)Nc1scc(-c2ccc(Cl)nc2)c1C(=O)O [G]
3 | ≤ 0.5 | O=C(Nc1scc(-c2ccc3scnc3c2)c1C(=O)O)c1cc2ccccc2o1 [J]
4 | ≤ 0.5 | Cc1ccc(-c2csc(NC(=O)c3cc4ccccc4o3)c2C(=O)O)c2ccccc12 [K]
5 | ≤ 0.5 | Cc1ccc(-c2csc(NC(=O)c3cc4ccccc4o3)c2C(=O)O)c2cccnc12 [L]

Target: STIM1 and Orai1 in human embryonic kidney 293 cells (HEK293 cells) (Homo sapiens, UniProt Q96D31)
Sequence (Q96D31 whole entry): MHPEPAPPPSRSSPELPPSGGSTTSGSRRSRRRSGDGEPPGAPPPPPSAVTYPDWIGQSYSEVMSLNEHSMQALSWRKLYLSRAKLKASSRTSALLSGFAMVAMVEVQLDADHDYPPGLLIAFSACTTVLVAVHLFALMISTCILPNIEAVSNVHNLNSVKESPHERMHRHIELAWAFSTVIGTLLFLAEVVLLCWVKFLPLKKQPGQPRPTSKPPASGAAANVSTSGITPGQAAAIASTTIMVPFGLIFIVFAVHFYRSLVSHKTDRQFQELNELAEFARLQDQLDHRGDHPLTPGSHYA
Assay: not given
Conditions: HEK293 co-expressing STIM1 and Orai1; cited from earlier work

Row | Structure (SMILES) | block of store-dependent Ca2+ entry
6 | NCCOB(c1ccccc1)c1ccccc1 [2-aminoethoxydiphenylborate] | completely blocked

Test system: Jurkat cells
Assay: not given
Conditions: Jurkat cells and colon cancer cells; cited from earlier work

Row | Structure (SMILES) | inhibition of SOCE | inhibition of proliferation
7 | Cc1nnsc1C(=O)Nc1ccc(-n2nc(C(F)(F)F)cc2C(F)(F)F)cc1 [BTP-2] | inhibits | inhibits

Test system: RBL-2H3 cells
Assay: Fluorescence-based assay of store-operated calcium entry in RBL-2H3 cells
Format: cell-based
Conditions: Rattus norvegicus, thapsigargin, 50% inhibition of Upslope
Protocol: B. Fluorescence-Based Assay of Store-Operated Calcium Entry in RBL-2H3 Cells.
RBL-2H3 cells were obtained from ATCC and maintained in complete medium with 10% FBS at 37° C./6% CO2.
(§2) The day prior to performing the assay, RBL-2H3 cells are plated in 50 μL of complete medium in a 384 well plate. Cells are grown at 37° C./6% CO2 overnight and grow to 50-60% confluence by the next day. On the assay day, 1.5 μM Fluo-4-AM dye (Invitrogen) in complete medium is added and incubated for 1 hour at RT. Cells are washed twice in Ca^2+-free HBSS buffer and 35 μL Ca^2+-free HBSS buffer is added to each well. 10 μL of a test compound prepared in a Ca^2+-free HBSS solution at 4.5× of the desired concentration is added to a well and incubated for 5 minutes at RT. 10 μL of thapsigargin prepared in a Ca^2+-free HBSS solution at 5.5× of the desired concentration (5.5 uM) is added to each well and incubated for an additional 25 minutes. The initial baseline fluorescence signal is measured with a FLIPR^384 (Molecular Devices) plate reader. 5 μL of 12× calcium in HBSS (12 mM) is added and changes in cellular fluorescence are measured with the FLIPR^384 plate reader. In each well, the change in the fluorescent signal as a function of time due to calcium entry into the cell is determined by calculating the difference between the fluorescent signal measured 7 seconds after calcium addition and the initial baseline fluorescence signal at time zero (t=0). This parameter is designated Upslope. The IC50 value is calculated as the concentration at which 50% of the Upslope is inhibited.

Row | IC50 [µM] | Structure (SMILES)
8 | ≤ 0.5 | O=C(Nc1scc(-c2cnc(C(F)(F)F)nc2)c1C(=O)O)c1cc2ccccc2o1 [F]
9 | 1 to 10 | O=C(Nc1scc(-c2c[nH]c3ccccc23)c1C(=O)O)c1cccc(F)c1 [H]
10 | ≤ 0.5 | O=C(Nc1scc(-c2ccc3scnc3c2)c1C(=O)O)c1cc2ccccc2o1 [J]
11 | 1 to 10 | Cc1ccc(-c2csc(NC(=O)c3cc4ccccc4o3)c2C(=O)O)c2ccccc12 [K]
12 | ≤ 0.5 | Cc1ccc(-c2csc(NC(=O)c3cc4ccccc4o3)c2C(=O)O)c2cccnc12 [L]

The remaining lines, values behind:

Row | Structure (SMILES) | IC50 [µM]
13 | Cc1ccc(-c2csc(NC(=O)c3cccc(F)c3)c2C(=O)O)s1 [A] | 1 to 10
14 | O=C(Nc1scc(-c2ccc(Cl)s2)c1C(=O)O)c1cc2ccccc2o1 [B] | ≤ 0.5
15 | Cc1csc(-c2csc(NC(=O)c3cccc(F)c3)c2C(=O)O)n1 [C] | 1 to 10
16 | O=C(Nc1scc(-c2nc3ccccc3n2C(F)F)c1C(=O)O)c1cc2ccccc2o1 [Compound I] | 1 to 10
17 | COc1ccc(-c2csc(NC(=O)c3cccc(F)c3)c2C(=O)O)cn1 [D] | 1 to 10
18 | COc1ccc(-c2csc(NC(=O)c3cc4ccccc4o3)c2C(=O)O)cn1 [E] | 1 to 10

Test system: JR251 or RBL cells
Assay: Store-operated calcium entry IC50 in either JR251 or RBL cells
Format: cell-based
Conditions: not given
Protocol: as §1, §2

Row | IC50 [µM] | Structure (SMILES)
19 | < 10 | Cc1ccc(-c2csc(NC(=O)c3cccc(F)c3)c2C(=O)O)s1 [5′-(3-fluorobenzamido)-5-methyl-2,3′-bithiophene-4′-carboxylic acid]
20 | < 10 | O=C(Nc1scc(-c2cccs2)c1C(=O)O)c1ccc(F)cc1 [5′-(4-fluorobenzamido)-2,3′-bithiophene-4′-carboxylic acid]
21 | < 10 | O=C(Nc1scc(-c2ccc(Br)s2)c1C(=O)O)c1cc2ccccc2o1 [5′-(benzofuran-2-carboxamido)-5-bromo-2,3′-bithiophene-4′-carboxylic acid]
22 | < 10 | O=C(Nc1scc(-c2ccc(Cl)s2)c1C(=O)O)c1cc2ccccc2o1 [5′-(benzofuran-2-carboxamido)-5-chloro-2,3′-bithiophene-4′-carboxylic acid]
23 | < 10 | Cc1ccc(-c2csc(NC(=O)c3cc4ccccc4o3)c2C(=O)O)s1 [5′-(benzofuran-2-carboxamido)-5-methyl-2,3′-bithiophene-4′-carboxylic acid]
24 | < 10 | COc1ccc(/C=C/C(=O)Nc2scc(-c3cccs3)c2C(=O)O)cc1OC [(E)-5′-(3-(3,4-dimethoxyphenyl)acrylamido)-2,3′-bithiophene-4′-carboxylic acid]
25 | < 10 | O=C(Nc1cc(-c2nc3ccccc3[nH]2)cs1)c1cccc(F)c1 [N-(4-(1H-benzo[d]imidazol-2-yl)thiophen-2-yl)-3-fluorobenzamide]
